This note sets out measurements from ChEMBL document CHEMBL1201862, “PubChem BioAssay data set” (2004).

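Cells were grown in 96-well plates and exposed to each compound for 48 hours at five concentrations; endpoints were interpolated linearly between bracketing concentrations, or set to the highest concentration if not reached. GI50 is the concentration that inhibits growth by half.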 Activity calls are given as the source filed them. Cut-off read from the data, not from the text of the source: active = GI50 up to about 1.1 µM and inactive = higher.

Assay in all cases: growth of human tumour cells (NCI), 48 h
For test [1], the system named is CAKI-1.
Test [2] concerns CCRF-CEM.
For test [3], the system named is HCC 2998.
The subject of test [4] is HOP-18.
Test [5] deals with HT-29.
Test [6] deals with K562.
Test [7] relates to MOLT-4.
Test [8] concerns NCI-H522.
Test [9] relates to SK-MEL-5.
The test system of test [10] is SNB-19.
In test [11] the test system is SW-620.
For test [12], the system named is U-251.
Test [13] concerns SF-539.
For test [14], the system named is DU-145.
The test system of test [15] is Hs-578T.
In test [16] the test system is MCF7.
The subject of test [17] is MDA-N.
The test system of test [18] is NCI/ADR-RES.
In test [19] the test system is PC-3.
Test [20] relates to T47D.

With `CCCCCCCCC(C)CCCCCCCCC(=O)OCC(COP(=O)([O-])OCC[N+](C)(C)C)OC(=O)CCCCCCCCC(C)CCCCCCCC` (stereo unspecified), the GI50 in [1], in test [2], in test [3], in test [4], in [5] and in [6] was > 100 µM (inactive) in each case. The GI50 in [7], in [8], in test [9], in test [10], in [11] and in [12] was > 100 µM (inactive) each time.

With `O=C(CSc1nnc(-c2ccc(/N=C\c3ccc(Cl)cc3)cc2)o1)Nc1cccc(Cl)c1`, the GI50 is > 100 µM (inactive) in [2]; > 100 µM (inactive) in [4]; > 100 µM (inactive) in test [5]; > 100 µM (inactive) in [6]; > 100 µM (inactive) in test [7]; 36.1 µM (inactive) in [8]. In addition, the GI50 in [9], in [10], in test [11] and in test [12] was > 100 µM (inactive) each time.

As for `CC(=O)Nc1ccc(C2CC(c3ccc([N+](=O)[O-])cc3)=Nc3ccccc3S2)cc1` (stereo unspecified), the GI50 was 24 µM (inactive) in test [1]; 13.8 µM (inactive) in test [2]; 24.3 µM (inactive) in [4]; 15.4 µM (inactive) in test [5]; 4.73 µM (inactive) in test [6]; 11.8 µM (inactive) in test [7]. For the same molecule, the GI50 was > 10 µM (inactive) in test [8]; 17.7 µM (inactive) in [13]; > 10 µM (inactive) in [9]; 22.7 µM (inactive) in test [10]; 16.8 µM (inactive) in test [11]; 15.2 µM (inactive) in test [12].

Regarding `O=c1c2cc(-c3ccccc3)sc2nc2sc(-c3ccccc3)nn12`, the GI50 in test [1], in [2], in [4], in test [5], in test [6] and in [7] was > 100 µM (inactive) throughout. Further, the GI50 in test [8], in test [13], in test [9], in test [10], in test [11] and in test [12] was > 100 µM (inactive) in each case.

As for `COC(=O)C1=C(O)c2cc(OC)c(OC)c(OC)c2C(c2ccc3c(c2)OCO3)[C@@H]1C(=O)OC` (stereo partly specified), the GI50 was 0.935 µM (active) in test [1]; 4.42 µM (inactive) in test [2]; 4.97 µM (inactive) in [3]; 23.1 µM (inactive) in test [4]; 2.84 µM (inactive) in test [5]; 3.9 µM (inactive) in test [6]. Besides, the GI50 in test [7] is 4.69 µM (inactive); in [13], 2.18 µM (inactive); in test [11] it was 2.22 µM (inactive); in test [12], 3.66 µM (inactive).

For `COC(=O)C(C)Sc1nc2cc(Cl)ccc2s1` (stereo unspecified), the GI50 in test [1] is > 100 µM (inactive); in test [2], 78.5 µM (inactive); in test [14], > 100 µM (inactive); in test [3], > 100 µM (inactive); in test [5] it was > 100 µM (inactive); in test [15], > 100 µM (inactive). For the same molecule, the GI50 in test [6] is 78.9 µM (inactive); in test [16] it was > 100 µM (inactive); in [17], > 100 µM (inactive); in test [7], > 100 µM (inactive); in test [8] it was > 100 µM (inactive); in test [18] it was > 100 µM (inactive). Besides, the GI50 in [19], in test [13], in test [9], in test [10], in [11] and in test [20] was > 100 µM (inactive) throughout. For the same molecule, the GI50 in test [12] is > 100 µM (inactive).

For the molecule `Cn1nc(-c2ccccc2)c(C(=O)/C=C/c2ccccc2)c(N2CCOCC2)c1=O`, the GI50 was 18.8 µM (inactive) in [2]; 28.6 µM (inactive) in test [4]; 17.7 µM (inactive) in test [5]; 17.9 µM (inactive) in test [6]; 13.2 µM (inactive) in test [7]; 12.9 µM (inactive) in test [8]. Also, the GI50 is 15.9 µM (inactive) in test [13]; 16 µM (inactive) in test [9]; > 10 µM (inactive) in [10]; 28.9 µM (inactive) in test [11]; 15.4 µM (inactive) in test [12].

On to `COc1ccc2c(c1)/c(=C/C#N)c1c3ccccc3[n+](C)n21`, for which the GI50 in [1] was 16.1 µM (inactive); in test [2], 2.04 µM (inactive); in test [14], 1.71 µM (inactive); in test [3] it was 1.44 µM (inactive); in [5], 2.24 µM (inactive); in test [15], 8.55 µM (inactive). The GI50 in test [6] was 8.69 µM (inactive); in test [16] it was 6.1 µM (inactive); in test [17], 5.43 µM (inactive); in test [7], 3.3 µM (inactive); in test [8], 4.33 µM (inactive); in test [18], 18.4 µM (inactive). The GI50 is 2.8 µM (inactive) in [19]; 0.767 µM (active) in [13]; 6.62 µM (inactive) in test [9]; 7.16 µM (inactive) in test [10]; 4.13 µM (inactive) in test [11]; 2.51 µM (inactive) in test [20]. Moreover, the GI50 in [12] was 2.75 µM (inactive).

Consider `COC(=O)C(CNC(=O)/C=C/c1ccc(OC)c(OC)c1)NC(=O)/C=C/c1ccc(OC)c(OC)c1` (stereo unspecified), for which the GI50 was > 100 µM (inactive) in test [1]; > 100 µM (inactive) in test [2]; > 100 µM (inactive) in test [14]; 50 µM (inactive) in test [3]; > 100 µM (inactive) in [5]; > 100 µM (inactive) in test [15]. Besides, the GI50 in test [6] is > 100 µM (inactive); in test [16] it was > 100 µM (inactive); in [17], > 100 µM (inactive); in test [7], 77.1 µM (inactive); in test [8] it was > 100 µM (inactive); in test [18], > 100 µM (inactive). Also, the GI50 in test [19] is > 100 µM (inactive); in test [13] it was > 100 µM (inactive); in test [9], > 100 µM (inactive); in test [10], > 100 µM (inactive); in test [11], > 100 µM (inactive); in [20], 75.7 µM (inactive). In test [12], the GI50 is > 100 µM (inactive).

Regarding `[N-]=[N+]=C1CNC(=O)NC1=O`, the GI50 was > 100 µM (inactive) in test [1]; 24.3 µM (inactive) in [2]; > 100 µM (inactive) in [14]; > 100 µM (inactive) in test [3]; > 100 µM (inactive) in [5]; > 100 µM (inactive) in [15]. For the same molecule, the GI50 is > 100 µM (inactive) in test [6]; > 100 µM (inactive) in [16]; > 100 µM (inactive) in [17]; 42.5 µM (inactive) in test [7]; > 100 µM (inactive) in test [8]; > 100 µM (inactive) in [18]. For the same molecule, the GI50 in test [19], in test [13], in test [9], in test [10], in [11] and in test [20] was > 100 µM (inactive) throughout. Further, in test [12], the GI50 was > 100 µM (inactive).

`COc1cccc2c1Cc1cc(-c3ccccc3)[n+](C)n1-2`: the GI50 in test [1] was 66.8 µM (inactive); in test [2], 3.37 µM (inactive); in [14], 30.1 µM (inactive); in test [3] it was 10.2 µM (inactive); in test [5] it was 3.54 µM (inactive); in test [15], 25.1 µM (inactive). Also, the GI50 in test [6] is 3.26 µM (inactive); in test [16], 2.3 µM (inactive); in [17], 11.9 µM (inactive); in test [7], 2.92 µM (inactive); in test [8], 4.93 µM (inactive); in [18], 84.7 µM (inactive). For the same molecule, the GI50 was 11.4 µM (inactive) in test [19]; 5.4 µM (inactive) in [13]; 8.89 µM (inactive) in test [9]; 28.9 µM (inactive) in test [10]; 6.1 µM (inactive) in test [11]; 3.4 µM (inactive) in [20]. The GI50 in [12] was 5.36 µM (inactive).

`Cc1nc(C)c(N2CCN(C(=O)O)CC2)c(O)n1`: the GI50 was 1.39 µM (inactive) in test [1]; > 100 µM (inactive) in test [2]; > 100 µM (inactive) in test [14]; > 100 µM (inactive) in test [3]; > 100 µM (inactive) in test [5]; > 100 µM (inactive) in test [15]. The GI50 in [6], in [16], in test [17], in test [7], in test [8] and in test [18] was > 100 µM (inactive) in each case. The GI50 in test [19], in [13], in test [9], in test [10], in test [11] and in test [20] was > 100 µM (inactive) throughout. Moreover, the GI50 in test [12] was > 100 µM (inactive).

As for `CCOC(=O)NC(=O)c1cn(CCN2CCN(C(=O)NCCCCCCNC(=O)N3CCN(CCn4cc(C(=O)NC(=O)OCC)c(=O)n(CCN(CC)CC)c4=O)CC3)CC2)c(=O)n(CCC(CC)CC)c1=O`, the GI50 in test [3], in test [4], in test [5], in [6], in test [8] and in test [13] was > 100 µM (inactive) each time. Also, the GI50 in test [9], in test [10], in test [11] and in [12] was > 100 µM (inactive) in each case.
